# Values quoted from earlier work as cited in patent US12691091B2, “Compositions comprising cetylated fatty acids for use in the treatment of gastric mucosa, diabetes and high blood glucose levels” (PHARMANUTRA S.P.A., priority 2019, dated 2026).
# Settings: European Union food additive E319
structure (smiles),measurement,value
"CC(C)(C)c1cc(O)ccc1O [TBHQ, Tert-butyl-hydroquinone]",acceptable daily intake (ADI),0.7 mg/kg of body weight
